This is an account of results in PubChem BioAssay (NCI).

Structures are written as SMILES. Several values for one entry are separate records, joined by “and”; a condition that tells them apart may be missing. Equal values may be shown once.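 How tested: cells in 96-well plates exposed to compound for 48 hours at five concentrations. GI50 = concentration required for 50% inhibition of growth. TGI marks complete inhibition of growth.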

The subject of one assay is DU-145 prostate. Put plainly: growth of human tumour cells (NCI), 48 h.
In turn, `Nc1cccc(Nc2nc3ccccc3nc2NS(=O)(=O)c2ccccc2)c1` yielded a TGI of over 100 µM.

Turning to `COc1cc(CNc2ccc(SC)cc2)cc(OC)c1OC`, the GI50 was 24.8 µM and 7.82 µM; the TGI was over 95.7 µM.

Compound `O=c1[nH]nc(Cc2ccc([N+](=O)[O-])cc2)n1CCO` came in with a TGI of over 100 µM.

The compound `N#Cc1c(-c2ccccc2)nc(-c2ccccc2)sc1=S` gave a TGI of over 100 µM.

In the case of `O=C(O)CC[N+]1=CCC(c2ccccc2)(c2ccccc2)O1`, the TGI is over 100 µM.

As to `CC1=NN(c2ccc(S(=O)(=O)O)cc2)C2(C1)SCC(=O)N2c1nc2ccccc2s1` (stereo not drawn), the TGI was over 100 µM.

`CCC(C#N)NC(=O)NC(C#N)CC` (stereo not drawn): the TGI was over 100 µM.

Consider `CCOC(=O)/C=C(/C(=O)OCC)n1ccc(N)nc1=O`, for which the TGI was over 100 µM.

`C[C@H](N)C(=O)Nc1ccc(-c2nc3ccccc3s2)cc1`: the TGI was found to be 38.5 µM.

In turn, `CC(=O)O[C@H]1C#C/C=C\C#CC[C@@H]2C(=O)N[C@@H]12` came in with a TGI of 62 µM.

In turn, `Cc1ccc2nc(Cl)c(/C=N/N3C(=O)/C(=C/c4ccccc4S)N=C3c3ccccc3)cc2c1` displayed a TGI of over 100 µM.

`CN(O)C(=O)c1cccc(Cl)c1` yielded a TGI of over 100 µM.

`CCOP(=O)(OCC)c1c(C(=O)OC)cc(=O)[nH]c1-c1ccc(C)cc1` gave a TGI of 17.5 µM.

For the compound `NCCN=C(Nc1ccccc1)Nc1ccccc1`, the TGI was over 100 µM.

Take `COC(=O)C1=C(C(=O)OC)SC2(S1)C1=C(CCCC1)SC(C(=O)OC)=C2C(=O)OC`: the TGI is 3.54 µM.

With `CCC1(C)N=C(c2cnccn2)NN1c1ccc(Cl)cc1` (stereo not drawn), the TGI is over 100 µM.

The compound `C1CNCCNCCN1` gave a TGI of over 100 µM.

Compound `C/C=C/C(O)P1(=O)N(Cc2ccccc2)[C@@H]2CCCC[C@H]2N1Cc1ccccc1` (stereo partly drawn) came in with a TGI of over 25 µM.

In the case of `O=c1nc2c(c(-c3ccccc3Cl)[nH]1)COC/C2=C\c1ccccc1Cl`, the TGI is over 100 µM.

The subject of the next assay is SK-MEL-2 melanoma. Put plainly: growth of human tumour cells (NCI), 48 h.
The compound `Nc1cccc(Nc2nc3ccccc3nc2NS(=O)(=O)c2ccccc2)c1` displayed a TGI of 31.3 µM.

Turning to `COc1cc(CNc2ccc(SC)cc2)cc(OC)c1OC`, the TGI was 46 µM and > 50.6 µM.

For the compound `O=c1[nH]nc(Cc2ccc([N+](=O)[O-])cc2)n1CCO`, the TGI is over 100 µM.

Turning to `N#Cc1c(-c2ccccc2)nc(-c2ccccc2)sc1=S`, the TGI is over 100 µM.

Compound `O=C(O)CC[N+]1=CCC(c2ccccc2)(c2ccccc2)O1` gave a TGI of over 100 µM.

`CC1=NN(c2ccc(S(=O)(=O)O)cc2)C2(C1)SCC(=O)N2c1nc2ccccc2s1` (stereo not drawn) showed a TGI of over 100 µM.

In turn, `CCC(C#N)NC(=O)NC(C#N)CC` (stereo not drawn) had a TGI of over 100 µM.

Consider `CCOC(=O)/C=C(/C(=O)OCC)n1ccc(N)nc1=O`, for which the TGI is over 100 µM.

With `C[C@H](N)C(=O)Nc1ccc(-c2nc3ccccc3s2)cc1`, the TGI stood at 99.4 µM.

As for `CC(=O)O[C@H]1C#C/C=C\C#CC[C@@H]2C(=O)N[C@@H]12`, the TGI was over 100 µM.

The compound `Cc1ccc2nc(Cl)c(/C=N/N3C(=O)/C(=C/c4ccccc4S)N=C3c3ccccc3)cc2c1` gave a TGI of 52.2 µM.

The compound `CN(O)C(=O)c1cccc(Cl)c1` yielded a TGI of over 100 µM.

In turn, `CCOP(=O)(OCC)c1c(C(=O)OC)cc(=O)[nH]c1-c1ccc(C)cc1` returned a TGI of 32.4 µM.

Compound `NCCN=C(Nc1ccccc1)Nc1ccccc1` registered a TGI of over 100 µM.

For `COC(=O)C1=C(C(=O)OC)SC2(S1)C1=C(CCCC1)SC(C(=O)OC)=C2C(=O)OC`, the TGI came out at 30 µM.

`CCC1(C)N=C(c2cnccn2)NN1c1ccc(Cl)cc1` (stereo not drawn) yielded a TGI of over 100 µM.

Turning to `C1CNCCNCCN1`, the TGI is over 100 µM.

`C/C=C/C(O)P1(=O)N(Cc2ccccc2)[C@@H]2CCCC[C@H]2N1Cc1ccccc1` (stereo partly drawn): the TGI was over 25 µM.

The compound `O=c1nc2c(c(-c3ccccc3Cl)[nH]1)COC/C2=C\c1ccccc1Cl` returned a TGI of over 100 µM.

The subject of another assay is MDA-MB-231 breast. In words: growth of human tumour cells (NCI), 48 h.
In the case of `Nc1cccc(Nc2nc3ccccc3nc2NS(=O)(=O)c2ccccc2)c1`, the TGI was 36 µM.

For `COc1cc(CNc2ccc(SC)cc2)cc(OC)c1OC`, the GI50 is 15 µM and 6.23 µM; the TGI was over 100 µM.

`O=c1[nH]nc(Cc2ccc([N+](=O)[O-])cc2)n1CCO` gave a TGI of over 100 µM.

Consider `N#Cc1c(-c2ccccc2)nc(-c2ccccc2)sc1=S`, for which the TGI was over 100 µM.

`O=C(O)CC[N+]1=CCC(c2ccccc2)(c2ccccc2)O1` came in with a TGI of over 100 µM.

`CC1=NN(c2ccc(S(=O)(=O)O)cc2)C2(C1)SCC(=O)N2c1nc2ccccc2s1` (stereo not drawn) displayed a TGI of over 100 µM.

As for `CCC(C#N)NC(=O)NC(C#N)CC` (stereo not drawn), the TGI was over 100 µM.

In turn, `CCOC(=O)/C=C(/C(=O)OCC)n1ccc(N)nc1=O` registered a TGI of over 100 µM.

Consider `C[C@H](N)C(=O)Nc1ccc(-c2nc3ccccc3s2)cc1`, for which the TGI was found to be 36.5 µM.

In the case of `CC(=O)O[C@H]1C#C/C=C\C#CC[C@@H]2C(=O)N[C@@H]12`, the TGI was over 100 µM.

In the case of `Cc1ccc2nc(Cl)c(/C=N/N3C(=O)/C(=C/c4ccccc4S)N=C3c3ccccc3)cc2c1`, the TGI was over 100 µM.

For `CN(O)C(=O)c1cccc(Cl)c1`, the TGI was over 100 µM.

Compound `CCOP(=O)(OCC)c1c(C(=O)OC)cc(=O)[nH]c1-c1ccc(C)cc1` displayed a TGI of 76.3 µM.

`NCCN=C(Nc1ccccc1)Nc1ccccc1`: the TGI is over 100 µM.

Take `COC(=O)C1=C(C(=O)OC)SC2(S1)C1=C(CCCC1)SC(C(=O)OC)=C2C(=O)OC`: the TGI turned out to be 29.3 µM.

The compound `CCC1(C)N=C(c2cnccn2)NN1c1ccc(Cl)cc1` (stereo not drawn) came in with a TGI of over 100 µM.

With `C1CNCCNCCN1`, the TGI is over 100 µM.

Compound `C/C=C/C(O)P1(=O)N(Cc2ccccc2)[C@@H]2CCCC[C@H]2N1Cc1ccccc1` (stereo partly drawn) had a TGI of over 25 µM.

`O=c1nc2c(c(-c3ccccc3Cl)[nH]1)COC/C2=C\c1ccccc1Cl`: the TGI is over 100 µM.

The subject of a further assay is UACC-62 melanoma. In words: growth of human tumour cells (NCI), 48 h.
On to `Nc1cccc(Nc2nc3ccccc3nc2NS(=O)(=O)c2ccccc2)c1`, for which the TGI was determined as 46.1 µM.

For the compound `COc1cc(CNc2ccc(SC)cc2)cc(OC)c1OC`, the GI50 is 10.7 µM and 4.64 µM; the TGI was > 80.7 µM and 51.1 µM.

In turn, `O=c1[nH]nc(Cc2ccc([N+](=O)[O-])cc2)n1CCO` gave a TGI of over 100 µM.

In the case of `N#Cc1c(-c2ccccc2)nc(-c2ccccc2)sc1=S`, the TGI was over 100 µM.

On to `O=C(O)CC[N+]1=CCC(c2ccccc2)(c2ccccc2)O1`, for which the TGI is over 100 µM.

Regarding `CC1=NN(c2ccc(S(=O)(=O)O)cc2)C2(C1)SCC(=O)N2c1nc2ccccc2s1` (stereo not drawn), the TGI was over 100 µM.

Compound `CCC(C#N)NC(=O)NC(C#N)CC` (stereo not drawn) registered a TGI of over 100 µM.

Compound `CCOC(=O)/C=C(/C(=O)OCC)n1ccc(N)nc1=O` yielded a TGI of over 100 µM.

`C[C@H](N)C(=O)Nc1ccc(-c2nc3ccccc3s2)cc1` registered a TGI of 35.4 µM.

The compound `CC(=O)O[C@H]1C#C/C=C\C#CC[C@@H]2C(=O)N[C@@H]12` came in with a TGI of over 100 µM.

In turn, `Cc1ccc2nc(Cl)c(/C=N/N3C(=O)/C(=C/c4ccccc4S)N=C3c3ccccc3)cc2c1` showed a TGI of over 100 µM.

As for `CN(O)C(=O)c1cccc(Cl)c1`, the TGI is over 100 µM.

As for `CCOP(=O)(OCC)c1c(C(=O)OC)cc(=O)[nH]c1-c1ccc(C)cc1`, the TGI was 20.4 µM.

Take `NCCN=C(Nc1ccccc1)Nc1ccccc1`: the TGI is over 100 µM.

`COC(=O)C1=C(C(=O)OC)SC2(S1)C1=C(CCCC1)SC(C(=O)OC)=C2C(=O)OC` had a TGI of 25.7 µM.

As for `CCC1(C)N=C(c2cnccn2)NN1c1ccc(Cl)cc1` (stereo not drawn), the TGI is over 100 µM.

Consider `C1CNCCNCCN1`, for which the TGI was over 100 µM.

Take `C/C=C/C(O)P1(=O)N(Cc2ccccc2)[C@@H]2CCCC[C@H]2N1Cc1ccccc1` (stereo partly drawn): the TGI was over 25 µM.

`O=c1nc2c(c(-c3ccccc3Cl)[nH]1)COC/C2=C\c1ccccc1Cl` gave a TGI of over 100 µM.

The test system of a further assay is HS 578T breast. Put plainly: growth of human tumour cells (NCI), 48 h.
In turn, `Nc1cccc(Nc2nc3ccccc3nc2NS(=O)(=O)c2ccccc2)c1` showed a TGI of over 100 µM.

`COc1cc(CNc2ccc(SC)cc2)cc(OC)c1OC`: the TGI is over 77.7 µM.

With `O=c1[nH]nc(Cc2ccc([N+](=O)[O-])cc2)n1CCO`, the TGI is over 100 µM.

With `N#Cc1c(-c2ccccc2)nc(-c2ccccc2)sc1=S`, the TGI was over 100 µM.

For the compound `O=C(O)CC[N+]1=CCC(c2ccccc2)(c2ccccc2)O1`, the TGI is over 100 µM.

Turning to `CC1=NN(c2ccc(S(=O)(=O)O)cc2)C2(C1)SCC(=O)N2c1nc2ccccc2s1` (stereo not drawn), the TGI was over 100 µM.

Consider `CCC(C#N)NC(=O)NC(C#N)CC` (stereo not drawn), for which the TGI was over 100 µM.

`CCOC(=O)/C=C(/C(=O)OCC)n1ccc(N)nc1=O` came in with a TGI of over 100 µM.

`C[C@H](N)C(=O)Nc1ccc(-c2nc3ccccc3s2)cc1` had a TGI of over 100 µM.

Turning to `CC(=O)O[C@H]1C#C/C=C\C#CC[C@@H]2C(=O)N[C@@H]12`, the TGI is over 86.2 µM.

With `Cc1ccc2nc(Cl)c(/C=N/N3C(=O)/C(=C/c4ccccc4S)N=C3c3ccccc3)cc2c1`, the TGI came to 58 µM.

In the case of `CN(O)C(=O)c1cccc(Cl)c1`, the TGI was over 100 µM.

For `CCOP(=O)(OCC)c1c(C(=O)OC)cc(=O)[nH]c1-c1ccc(C)cc1`, the TGI turned out to be 49.1 µM.

Consider `NCCN=C(Nc1ccccc1)Nc1ccccc1`, for which the TGI was over 100 µM.

`COC(=O)C1=C(C(=O)OC)SC2(S1)C1=C(CCCC1)SC(C(=O)OC)=C2C(=O)OC` returned a TGI of 30.7 µM.

For the compound `CCC1(C)N=C(c2cnccn2)NN1c1ccc(Cl)cc1` (stereo not drawn), the TGI was over 100 µM.

Turning to `C1CNCCNCCN1`, the TGI was over 100 µM.

As for `C/C=C/C(O)P1(=O)N(Cc2ccccc2)[C@@H]2CCCC[C@H]2N1Cc1ccccc1` (stereo partly drawn), the TGI is over 25 µM.

`O=c1nc2c(c(-c3ccccc3Cl)[nH]1)COC/C2=C\c1ccccc1Cl` gave a TGI of over 100 µM.
